Assay results: ChEMBL document CHEMBL4837249, “Discovery of Potent Antiallergic Agents Based on an o-Aminopyridinyl Alkynyl Scaffold” (J Med Chem, 2021)

Key:
RBL-2H3 [1] = experiment: Antiallergic activity against anti-DNP-IgE sensitized rat RBL-2H3 cells assessed as […] of degranulation by measuring beta-hexosaminidase release using P-nitrophenyl-N-acetyl-D-glucosamide as substrate at 1 uM measured after 1 hr by microplate reader relative to control; assay type: functional
RBL-2H3 [2] = experiment: Antiallergic activity against anti-DNP-IgE sensitized rat RBL-2H3 cells assessed as […] of degranulation by measuring beta-hexosaminidase release using P-nitrophenyl-N-acetyl-D-glucosamide as substrate at 0.2 uM measured after 1 hr by microplate reader relative to control; assay type: functional
RBL-2H3 [3] = experiment: Antiallergic activity against anti-DNP-IgE sensitized rat RBL-2H3 cells assessed as […] of degranulation by measuring beta-hexosaminidase release using P-nitrophenyl-N-acetyl-D-glucosamide as substrate at 0.04 uM measured after 1 hr by microplate reader relative to control; assay type: functional
[4] = Therapeutic index, ratio of CC50 for rat RBL2H3 cells to IC50 for Antiallergic activity against anti-DNP-IgE sensitized rat RBL-2H3 cells; assay type: toxicity; conditions: read-out: TI
RBL-2H3 [5] = experiment: Antiallergic activity against anti-DNP-IgE sensitized rat RBL-2H3 cells assessed as […] of degranulation by measuring beta-hexosaminidase release using P-nitrophenyl-N-acetyl-D-glucosamide as substrate measured after 1 hr by microplate reader; assay type: functional, cell-based; conditions: RBL-2H3, 1 h
[6] = target: Macrophage colony-stimulating factor 1 receptor (Homo sapiens, UniProt P07333); experiment: Inhibition of human recombinant CSF1R using ATP/Ulight-TK peptide incubated for 15 mins
Chain of Macrophage colony-stimulating factor 1 receptor (P07333 whole entry): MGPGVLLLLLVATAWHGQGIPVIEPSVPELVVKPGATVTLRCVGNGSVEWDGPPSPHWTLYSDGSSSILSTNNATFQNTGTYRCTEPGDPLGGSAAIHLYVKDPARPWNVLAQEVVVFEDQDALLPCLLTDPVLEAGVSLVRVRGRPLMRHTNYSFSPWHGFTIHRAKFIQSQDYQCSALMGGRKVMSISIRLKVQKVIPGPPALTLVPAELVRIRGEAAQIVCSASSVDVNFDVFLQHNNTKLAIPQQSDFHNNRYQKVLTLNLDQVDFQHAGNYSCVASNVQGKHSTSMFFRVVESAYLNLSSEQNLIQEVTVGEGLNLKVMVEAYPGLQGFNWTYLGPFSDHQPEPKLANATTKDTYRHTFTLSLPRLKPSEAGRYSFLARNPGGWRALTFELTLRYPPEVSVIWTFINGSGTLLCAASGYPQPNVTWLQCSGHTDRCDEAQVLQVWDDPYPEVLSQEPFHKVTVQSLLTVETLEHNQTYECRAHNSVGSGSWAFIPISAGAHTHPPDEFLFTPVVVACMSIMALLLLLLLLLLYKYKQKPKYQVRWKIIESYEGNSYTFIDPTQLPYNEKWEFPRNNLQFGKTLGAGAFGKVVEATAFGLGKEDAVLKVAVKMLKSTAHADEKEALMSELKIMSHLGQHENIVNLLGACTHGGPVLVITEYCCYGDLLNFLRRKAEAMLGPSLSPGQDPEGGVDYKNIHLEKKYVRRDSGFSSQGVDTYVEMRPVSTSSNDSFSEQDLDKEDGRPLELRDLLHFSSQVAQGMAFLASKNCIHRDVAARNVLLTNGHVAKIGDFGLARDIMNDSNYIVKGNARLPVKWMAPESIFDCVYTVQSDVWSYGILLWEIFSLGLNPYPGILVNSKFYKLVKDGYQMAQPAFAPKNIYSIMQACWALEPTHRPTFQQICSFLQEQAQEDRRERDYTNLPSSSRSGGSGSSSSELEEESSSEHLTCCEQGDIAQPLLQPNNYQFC

IC50 [6] [µM]	SMILES	inhibition at 1 µM (RBL-2H3 [1]) [%]	inhibition at 0.2 µM (RBL-2H3 [2]) [%]	inhibition at 0.04 µM (RBL-2H3 [3]) [%]	selectivity ratio [4]	IC50 (RBL-2H3 [5]) [µM]
	COc1cc(NC(=O)c2ccc(C(F)(F)F)c(C#Cc3cc(-c4cnn(C)c4)cnc3N)c2)cc(OC)c1	15.7	-2.84	-3.24		
	Cc1ccc(C(=O)Nc2cccc(Cl)c2)cc1C#Cc1cc(-c2cnn(C)c2)cnc1N	118	82.9	49	3.8	0.00654
	Cc1ccc(C(=O)Nc2ccc(C(F)(F)F)c(C(F)(F)F)c2)cc1C#Cc1cc(-c2cnn(C)c2)cnc1N	144		40.5		0.0588
	COc1cc(NC(=O)c2ccc(Cl)c(C#Cc3cc(-c4cnn(C)c4)cnc3N)c2)cc(OC)c1	52.5	9.97	0		
	Cc1ccc(C(=O)Nc2ccccc2)cc1C#Cc1cc(-c2cnn(C)c2)cnc1N	65.3	40.9	28.6		
	Cc1ccc(C(=O)Nc2ccc3c(c2)OCCO3)cc1C#Cc1cc(-c2cnn(C)c2)cnc1N	132	102	66.8		0.0673
	Cc1ccc(C(=O)NC2CCCCC2)cc1C#Cc1cc(-c2cnn(C)c2)cnc1N	63.7		0.18		
	COc1cc(NC(=O)c2cccc(C#Cc3cc(-c4cnn(C)c4)cnc3N)c2C)cc(OC)c1	18.3	8.75	3.11		
	COc1cc(NC(=O)c2ccc(C)c(C#Cc3cccnc3N)c2)cc(OC)c1	55.9	3.01	4.26		
	CNC(=O)c1cnc(N)c(C#Cc2cc(C(=O)Nc3cc(OC)cc(OC)c3)ccc2C)c1	66.2	26.8	14.7		
	COc1cc(NC(=O)c2cccc(C#Cc3cc(-c4cnn(C)c4)cnc3N)c2)cc(OC)c1	41	272	1.08		
	COc1ccc(NC(=O)c2ccc(C)c(C#Cc3cc(-c4cnn(C)c4)cnc3N)c2)cc1	101	66.9	41.5		0.0106
0.008	COc1cc(NC(=O)c2ccc(C)c(C#Cc3cc(-c4cnn(C)c4)cnc3N)c2)cc(OC)c1OC	131	103	82.6	2.2	0.00743
	Cc1ccc(C(=O)Nc2ccc(C(F)(F)F)cc2)cc1C#Cc1cc(-c2cnn(C)c2)cnc1N	78.4	60.8	51.1	2.3	0.00608
	COc1cc(NC(=O)c2cccc(C#Cc3cc(-c4cnn(C)c4)cnc3N)c2F)cc(OC)c1	33	24.8	34		
	COc1cc(NC(=O)c2ccc(C)c(C#Cc3cc(C(N)=O)cnc3N)c2)cc(OC)c1	74.2	13.7	10.8		
	COc1cc(NC(=O)c2cccc(C#Cc3cc(-c4cnn(C)c4)cnc3N)c2OC)cc(OC)c1	22.8	6.7	0		
0.024	Cc1ccc(C(=O)Nc2cccc(OC(F)(F)F)c2)cc1C#Cc1cc(-c2cnn(C)c2)cnc1N	150	138	81.1	12.9	0.00715

IC50 [6] [µM]	SMILES	inhibition at 1 µM (RBL-2H3 [1]) [%]	inhibition at 0.2 µM (RBL-2H3 [2]) [%]	inhibition at 0.04 µM (RBL-2H3 [3]) [%]	selectivity ratio [4]	IC50 (RBL-2H3 [5]) [µM]
	COc1cc(NC(=O)c2ccc(Br)c(C#Cc3cc(-c4cnn(C)c4)cnc3N)c2)cc(OC)c1	79.2	36.6	22.6		
	Cc1ccc(C(=O)Nc2ccccc2Cl)cc1C#Cc1cc(-c2cnn(C)c2)cnc1N	25	-5.24	-4.58		
	COc1cc(NC(=O)c2ccc(OC)c(C#Cc3cc(-c4cnn(C)c4)cnc3N)c2)cc(OC)c1	34	18	11		
	Cc1ccc(C(=O)Nc2ccc(CN3CCN(C)CC3)c(C(F)(F)F)c2)cc1C#Cc1cnc2cccnn12 [PONATINIB]					0.148
	COc1cc(NC(=O)c2ccc(C)c(C#Cc3cc(Cl)cnc3N)c2)cc(OC)c1	50.9	37	-1.58		
	COc1ccccc1NC(=O)c1ccc(C)c(C#Cc2cc(-c3cnn(C)c3)cnc2N)c1	73.5		10.2		
	COc1ccc(NC(=O)c2ccc(C)c(C#Cc3cc(-c4cnn(C)c4)cnc3N)c2)cc1OC	82.2	49.7	23.7		
	Cc1ccc(C(=O)Nc2ccc(Cl)cc2)cc1C#Cc1cc(-c2cnn(C)c2)cnc1N	89.5	68.6	52	11.3	0.0239
	Cc1ccc(C(=O)Nc2cccc(C(F)(F)F)c2)cc1C#Cc1cc(-c2cnn(C)c2)cnc1N	113	109	88.9	2.5	0.00275
	CCNc1ncc(-c2cnn(C)c2)cc1C#Cc1cc(C(=O)Nc2cc(OC)cc(OC)c2)ccc1C	95.4	45.3	16.8		
	Cc1ccc(C(=O)Nc2ccc(Cl)c(Cl)c2)cc1C#Cc1cc(-c2cnn(C)c2)cnc1N	65	40.6	39.8		
	COc1cccc(NC(=O)c2ccc(C)c(C#Cc3cc(-c4cnn(C)c4)cnc3N)c2)c1	125	80.5			0.0219
	COc1cc(NC(=O)c2ccc(F)c(C#Cc3cc(-c4cnn(C)c4)cnc3N)c2)cc(OC)c1	30.9	0.83	2.34		
	COc1cc(NC(=O)c2ccc(C)c(C#Cc3cc(-c4cnn(C)c4)cnc3N)c2)cc(OC)c1	108	61.7	20.1	15.4	0.0258
	COc1cc(NC(=O)c2ccc(C(C)C)c(C#Cc3cc(-c4cnn(C)c4)cnc3N)c2)cc(OC)c1	-1.01	-7.82	-8.56		
	Cc1ccc(C(=O)Nc2ccccn2)cc1C#Cc1cc(-c2cnn(C)c2)cnc1N	60.6	21.1	2.86		
	FC(F)(F)c1ccc(CNc2ccc(Cc3c[nH]c4ncc(Cl)cc34)cn2)cn1 [PEXIDARTINIB]					> 1
0.03	Cc1ccc(C(=O)Nc2ccc(Cl)c(C(F)(F)F)c2)cc1C#Cc1cc(-c2cnn(C)c2)cnc1N	170	145	76.1	13.9	0.013
